Measurements: patent publication US8916610B2, “Acid addition salt of a nortriptyline-GABA conjugate and a process of preparing same” (Ramot at Tel-Aviv University Ltd., priority 2010, dated 2014)
Read-outs that look alike come from different tables or passages of the source.

Columns and labels:
[1] = From the text: Particle size data was acquired using a Malvern Instruments MS2000 equipped with a Hydro2000μP dispersion unit. Data was collected and analyzed with Mastersizer 2000v.5.1 software, using volume based measurements. NIST traceable glass beads were used as the reference standard.
The final method conditions selected for determining the particle size of BL-1021 fumarate salts were as follows:
Dispersant: silicone oil;
Dispersant refractive index: 1.403;
The measurement of particle size of all lots was performed using the same method conditions (silicone oil as a dispersing medium, a pump speed of 1750 rpm).

[2] = remark: listed apart in the source
From the text: Samples were submitted to Particle Technology Labs (PTL), Downers Grove, Ill., for bulk and tapped density analyses.

[3] = remark: listed apart in the source
Method: Surface area data were collected using nitrogen absorption on a BET Micrometics Gemini V (11-point BET analysis) analyzer. The samples were outgassed at 25° C. under vacuum for at least 2 hours. SRM 1899 and SRM 1900 were used as the calibration standards.

[4] = silicone oil dispersing medium, pump speed 1750 rpm, volume based, text b315 speaks of μm
[5] = batches after milling, listed as CC-2190.0-20.1
[6] = batches after milling, listed as CC-2190.0-21.1
[7] = batches after milling, listed as CC-2190.0-23.1
[8] = batches after milling, listed as CC-2562.0-01.1
[9] = batches before and after milling

For `CN(CCC=C1c2ccccc2CCc2ccccc21)C(=O)CCCN.O=C(O)/C=C/C(=O)O` [BL-1021 fumarate salt, nortriptyline-4-aminobutyrate fumarate], the “particle size distribution d10” value [1, 4] was 7.0, the “particle size distribution d50” value [1, 4] was 93.9 and the “particle size distribution d90” value [1, 4] was 220.8. For the same compound, the “D90 (as stated in text, FIG. 6)” value ([1]; silicone oil, 1750 rpm) was 200±25%, the “particle size up to (upper end of bimodal distribution, FIG. 6)” value ([1]; silicone oil, 1750 rpm, fine tail below 1 μm) was ≤ 400 μm and the Bulk density ([2]; batch before milling) was 0.29 g/mL. The Tapped density ([2]; batch before milling) was 0.42 g/mL, the Bulk density [2, 5] was 0.22 g/mL and the Tapped density [2, 5] was 0.35 g/mL. For the same compound, the Bulk density [2, 6] was 0.18 g/mL, the Tapped density [2, 6] was 0.31 g/mL and the Bulk density [2, 7] was 0.25 g/mL. It also gave a Tapped density [2, 7] of 0.39 g/mL, a Bulk density [2, 8] of 0.19 g/mL and a Tapped density [2, 8] of 0.36 g/mL. The “bulk density (range over batches)” value [2, 9] was 0.18-0.29 gram/ml, the “tapped density (range over batches)” value [2, 9] was 0.31-0.42 gram/ml and the “BET surface area, Results” value ([3]; batch before milling) was 6.58 m^2/g. For the same compound, the “BET surface area, Results” value [3, 5] was 8.43 m^2/g, the “BET surface area, Results” value [3, 6] was 10.84 m^2/g and the “BET surface area, Results” value [3, 7] was 11.84 m^2/g. For the same compound, the “BET surface area, Results” value [3, 8] was 7.45 m^2/g.
